Where two headings read alike, the source gives them in different places.
Key:
Assay type in all cases: cell-based
[1] = system: human tumor pancreatic carcinoma (MiaPaCa 2); assay: Growth inhibitory effects on MiaPaCa 2 cells (MTT staining); settings: MIA PaCa-2, concentration 10^-5 M, read-out: inhibition of cell growth
Experimental: (§1) Cell lines. Human tumor pancreatic carcinoma cells (MiaPaCa 2), laryngeal carcinoma (Hep 2), human cervical carcinoma (HeLa) and normal human fibroblasts (Hef 2) were grown as monolayers at 37 °C in a humidified atmosphere with 5% CO2 in DMEM supplemented with 10% fetal calf serum, 2 mM glutamine, 100 U/ml penicillin and […] streptomycin.
(§2) Cell Cytotoxicity. To the purpos of the experiments the cells ([…]; 2x10^4 cells/ml) were plated onto 96-microwell plates. After 24 hours, test compounds at different concentrations (10^-4-10^-8 M), were added to the cells. Three days later, cell viability was determined by […]. The control cells were grown under same conditions without addition of test compounds. […] This method depends on the conversion of a water-soluble tetrazolium salt (MTT) to a purple colored formazan precipitate. The reaction affected by dehydrogenase enzymes active only in living cells. Tests were carried out in 96-well microculture plates. 10^4 viable tumor cells per well at 4 h incubation time 20 µg MTT7100 µl total medium volume. Formazan crystals were dissolved in DMSO and the plates were immediately measured on a microculture plate reader at 540 nm.

[2] = system: laryngeal carcinoma (Hep 2); assay: Growth inhibitory effects on Hep 2 cells (MTT staining); settings: Homo sapiens, concentration 10^-5 M, read-out: inhibition of cell growth
Experimental: as §1, §2

[3] = system: human cervix carcinoma (HeLa); assay: Growth inhibitory effects on HeLa cells (MTT staining); settings: concentration 10^-5 M, read-out: inhibition of cell growth
Experimental: as §1, §2

[4] = system: normal human fibroblasts (Hef 2); assay: Growth inhibitory effects on normal Hef 2 fibroblasts (MTT staining); settings: Fibroblast, Hef 2 normal cells, concentration 10^-5 M, read-out: inhibition of cell growth
Experimental: as §1, §2

In the case of `Cc1ccc(S(=O)(=O)n2cc(Br)c(=O)[nH]c2=O)cc1` [compound 2], the inhibition at 10 µM [1] was 80%, the inhibition at 10 µM ([2]; Hep 2) was 20% and the inhibition at 10 µM [3] was 85%.

In the case of `Cc1ccc(S(=O)(=O)n2ccc(N)nc2=O)cc1` [compound 4], the inhibition at 10 µM [1] was 65%, the inhibition at 10 µM ([2]; HEp-2, Hep 2) was 20% and the inhibition at 10 µM [3] was 85%. It also gave an inhibition at 10 µM [4] of 20%.

— EP0877022A1, “Synthesis of the sulfonylpyrimidine derivatives with anticancer activity” (Herbos d.d., priority 1997, dated 1998)
